Test results as given in patent US20100322887A1, “HAIR NOURISHING COSMETIC” (SHOWA DENKO K.K., priority 2008, published 2010).

Legend:
Solubility in water = conditions: normal temperature
male C3H/HeN Sic mice = assay: Hair regrowth promotion test using mouse; format: in vivo; conditions: after 20 days
Experimental: 15 male C3H/HeN Sic 7-week old mice in the resting stage of the hair cycle had their hair at the back part shorn off carefully with an electric hair clipper and an electric shaver. These mice were divided into three groups each containing 5 mice. To the skin of the shorn part of each mouse in one group, 0.1 ml of a test sample shown in the following Table 4 was applied once a day, and to the skin of the shorn part of each mouse in another group, a base was applied in the same amount. The residual group in which nothing had been applied was regarded as an untreated control.
After 20 days from the beginning of the experiments, the back part of each mouse was photographed. By the use of an image analyzing software (Image-J), a ratio of the area where the hair had regrown to the whole area of the hair shorn part was calculated, and the resulting ratio was regarded as a hair regrowth ratio. The hair regrowth ratio of each mouse was calculated, and statistical analysis of the hair regrowth ratio of each group was carried out. The results are shown in FIG. 1 and the following Table 5.

Row | solubility in water (Solubility in water) | Molecule | Hair regrowth ratio (%) Average (male C3H/HeN Sic mice; 0.1 ml once a day on shorn back skin, in Macrogol 400:Macrogol 4000 = 9:1 base, n=5) [%] | hair regrowth ratio (in words) (male C3H/HeN Sic mice; test sample group)
1 | less than 100 ppm | COC1=C(OC)C(=O)C(C/C=C(\C)CC/C=C(\C)CC/C=C(\C)CC/C=C(\C)CC/C=C(\C)CC/C=C(\C)CC/C=C(\C)CC/C=C(\C)CC/C=C(\C)CCC=C(C)C)=C(C)C1=O [ubiquinone] | – | –
2 | – | tetrapotassium ubiquinol-1,4-diphosphate | 58.45 | tendency of enhancement
